Measured values published in ChEMBL document CHEMBL1146347, “Carinatumins A-C, new alkaloids from Lycopodium carinatum inhibiting acetylcholinesterase” (Bioorg Med Chem, 2007).
pIC50: −log10 of the molar value.

The compounds below were run against T1, Acetylcholinesterase (Bos taurus, UniProt P23795) (assay: Inhibition of bovine erythrocyte acetylcholinesterase).
T1 sequence (P23795 whole entry): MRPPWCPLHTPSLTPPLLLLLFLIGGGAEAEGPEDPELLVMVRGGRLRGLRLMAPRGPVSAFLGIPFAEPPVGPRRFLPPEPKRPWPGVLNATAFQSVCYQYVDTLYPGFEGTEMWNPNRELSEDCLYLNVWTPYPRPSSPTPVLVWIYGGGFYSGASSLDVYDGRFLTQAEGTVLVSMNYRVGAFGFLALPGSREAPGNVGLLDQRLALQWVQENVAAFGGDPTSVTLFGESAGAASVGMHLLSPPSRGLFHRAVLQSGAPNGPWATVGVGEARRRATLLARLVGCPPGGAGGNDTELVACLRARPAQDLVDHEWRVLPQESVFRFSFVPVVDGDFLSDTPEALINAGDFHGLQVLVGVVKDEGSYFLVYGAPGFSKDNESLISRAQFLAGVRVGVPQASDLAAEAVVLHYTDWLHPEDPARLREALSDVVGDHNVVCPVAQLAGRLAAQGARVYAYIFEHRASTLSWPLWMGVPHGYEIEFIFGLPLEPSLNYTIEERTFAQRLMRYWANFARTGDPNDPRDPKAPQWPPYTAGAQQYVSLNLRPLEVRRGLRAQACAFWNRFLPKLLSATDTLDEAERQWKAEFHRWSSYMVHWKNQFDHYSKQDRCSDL
CC1=C[C@H]2Cc3[nH]c(=O)ccc3[C@]3(C1)NCC[C@@H](O)[C@H]23 [CARINATUMINS B (2)] gave a pIC50 of 5.15.
CC1=C[C@H]2Cc3[nH]c(=O)ccc3[C@](N)(C1)/C2=C/CO was tested, and the pIC50 was 5.34.
C[C@H]1C[C@@H](CC2=[N+]([O-])CCCC2)[C@@H]2CCCN[C@H]2C1 was tested, and the pIC50 was under 4.00.
